Experimental data reported in patent publication US11142796B2, “MIR-18B for use as a marker of cancer progression and target for therapies to treat cancer” (SUTTER WEST BAY HOSPITALS, priority 2012, dated 2021).
Entries after “also recorded” stand apart in the source; their conditions may differ.

Experiments:
miR-18b expression = miR-18b expression by miR qRT-PCR in drug-treated melanoma cells; type: cell-based, human
Text: The DO4, WM3211, 1205-Lu, C8161.9, WM278 and Lox melanoma cell lines were obtained and propagated as described in Dar et al., J Biol Chem 286:16606-14 (2011). Normal human melanocytes (HEM) were purchased from Lifeline cell technology and grown in LL-0027 media (Lifeline cell technology, Walkersville Md.). Plasmids miRNASelect™ pEP-miR Null control vector (pEP Null), miRNASelect™ pEP-hsa-mir-18b expression vector (pEP miR-18b) (Cell Biolabs Inc, San Diego Calif.) were purchased. TaqMan probes for hsa-miR-18b and negative control pre-miR (cont. miR) were purchased from Applied Biosystems (Foster City, Calif.). Sub-confluent cells (60-70% confluent) were treated with 5-AZA-2′-deoxycytidine (5AZA) (Sigma Aldrich, St. Louis Mo.) dissolved in dimethyl-sulfoxide. Cells treated with vehicle served as control. Transient transfections were carried out by Lipofectamine-2000 (Invitrogen Life Technologies, Carlsbad, Calif.) following the manufacturer's protocol.
Mature miRNAs and other mRNAs were assayed using the TaqMan MicroRNA Assays and Gene Expression Assays (Applied Biosystems), respectively, as previously described in Dar et al., J Biol Chem 286:16606-14 (2011).

chromatin modifications = experiment: Chromatin immunoprecipitation analysis after miR-18b overexpression; type: cell-based, human
Protocol: Chromatin immunoprecipitation analysis was performed using the EZ-ChIP kit (Upstate Biotechnology, Charlottesville, Va.) according to the manufacturer's directions and as described in Majid et al., Carcinogenesis 30: 662-70 (2009). Antibodies used in the immunoprecipitations were purchased from Upstate Biotechnology and Ambion (Austin, Tex.) and were specific for acetyl histone H3 (06-599), acetyl histone H4 (06-866), dimethyl-histone H3 lysine 4 (07-030), trimethyl-histone H3 lysine 4(07-473), dimethyl-histone H3 lysine 9 (07-441) and trimethyl-histone H3 lysine 9 (ab8898). The immunoprecipitated DNA was eluted in a total volume of 50 μl and 2 μl were used for PCR.

3′UTR of MDM2 = experiment: Luciferase reporter assay with MDM2-3′UTR; type: cell-based, human
Text: The 3′-UTR region of MDM2 containing target site sequences complementary to the seed sequence of miR-18b were cloned downstream of the luciferase gene in the pMIR-REPORT luciferase vector (Ambion, Cambridge Mass.), and the resultant vectors were named MDM2-3′UTR. Mutated 3′UTR sequences of MDM2 complementary to miR-18b were cloned in the same vector and the resultant vectors named MDM2-Mut 3′UTR. For reporter assays, cells were transiently transfected with wild-type or mutant reporter plasmid and miR-18b. Firefly luciferase activities were measured by using the Dual Luciferase Assay (Promega, Madison, Wis.) 48 hr after transfection and the results were normalized with Renilla luciferase. Each reporter plasmid was transfected at least three times (on different days) and each sample was assayed in triplicate.

[1] = tested on: MDM2 (and the p53 pathway); experiment: Western blot analysis of MDM2 and p53 pathway proteins; type: cell-based, human
Protocol: (§1) Cell lysates were prepared in PBS containing 1×Halt protease inhibitor cocktail and 1×Halt phosphatase inhibitor cocktail (Pierce, Rockford, Ill.) centrifuged at 3500 r.p.m. for 10 min at 4° C. Proteins (10-15 ug) from each sample were subjected to SDS/polyacrylamide gel electrophoresis (PAGE) and transferred onto a nitrocellulose membrane. Target proteins were detected by using specific antibodies against MDM2, p53, p21, BCL-2 and GAPDH (Santa Cruz Biotechnology, Santa Cruz, Calif.), and PUMA, BCL-XL (Cell Signaling Technology, Danvers, Mass.).

[2] = tested on: C8161.9 melanoma cell lines; experiment: Cell survival, MDM2 and p53 expression in mutant p53 cells; type: cell-based, human; settings: C8161.9 cells harboring mutant p53
Protocol: (§2) Cell viability, colony formation and flow cytometry analysis were performed as described previously in Dar et al., J Biol Chem 286:16606-14 (2011); and Dar et al., J Invest Dermatol 130:2071-9 (2010)).
as §1

1205-Lu cells [3] = experiment: Cell proliferation / viability, 1205-Lu; type: cell-based, human
Protocol: as §2

1205-Lu cells [4] = experiment: Colony formation assay, 1205-Lu; type: cell-based, human
Protocol: as §2

1205-Lu cells [5] = experiment: Cell cycle analysis (flow cytometry), 1205-Lu; type: cell-based, human
Protocol: as §2

1205-Lu cells [6] = experiment: Apoptosis assay, 1205-Lu; type: cell-based, human
Protocol: as §2

LOX human melanoma cells [7] = experiment: Cell proliferation, LOX; type: cell-based; settings: LOX cells transfected with miR-18b
Protocol: as §2

LOX human melanoma cells [8] = experiment: Colony formation, LOX; type: cell-based; settings: LOX cells transfected with miR-18b
Protocol: as §2

LOX human melanoma cells [9] = experiment: Cell cycle analysis, LOX; type: cell-based; settings: LOX cells transfected with miR-18b
Protocol: as §2

LOX human melanoma cells [10] = experiment: Apoptosis assay, LOX; type: cell-based; settings: LOX cells transfected with miR-18b
Protocol: as §2

1205-Lu cells [11] = experiment: Subcutaneous tumor growth of 1205-Lu cells stably expressing miR-18b; type: in vivo, nude mice
Protocol: 1205-Lu cells were transfected with pEP Null or pEP miR-18b vectors (Cellbiolabs, San Diego Calif.) and selected with puromycin (1 μg/mL). For in-vivo studies as described previously in Dar et al., J Invest Dermatol 130:2071-9 (2010), 1×10^6 cells were injected into nude mice subcutaneously and tumor growth was followed for 24 days. All animal care was in accordance with the institutional guidelines.

1205-Lu melanoma cells [12] = experiment: Migration assay (boyden chamber); type: cell-based, human; settings: miR-18b over-expression; vs cont.miR
Protocol: (§3) For 1205-Lu cells boyden chamber inserts were coated with 15 μl matrigel at 6 mg/ml protein. For migration assay boyden chamber inserts were not coated and cells were directly added to them.

1205-Lu melanoma cells [13] = experiment: Invasion assay (matrigel-coated boyden chamber); type: cell-based, human; settings: miR-18b over-expression; vs cont.miR
Protocol: as §3

[14] = tested on: E-cadherin, vimentin, N-cadherin and slug; experiment: EMT markers by immunofluorescence and Western blot; type: cell-based, human; settings: miR-18b overexpression in 1205-Lu
Protocol: as §1
1205-Lu cells were plated in 8-well plate chamber. Immunofluorescence assay was performed as previously described in Dar et al., Oncogene 28: 866-75 (2009). N-cadherin, vimentin, slug and E-cadherin antibodies (Cell signaling) were used in the assay.

[15] = 1205-Lu co-transfection with empty vector or MDM2-expressing vector
[16] = 1205-Lu stably overexpressing miR-18b
[17] = transient miR-18b overexpression
[18] = stable expression of miR-18b, vs control vector
[19] = transient transfection, vs cont.miR

Nc1ncn([C@H]2C[C@H](O)[C@@H](CO)O2)c(=O)n1 [5AZA, 5-AZA-2′-deoxycytidine]
miR-18b expression (miR-18b expression; five melanoma cell lines (C8161.9, LOX, 1205-Lu, DO4, WM278), 5AZA 5 μM, vs vehicle): significant upregulation

N.N.[Cl][Pt][Cl] [cisplatin]
miR-18b expression (miR-18b expression; 1205-Lu cells, 2 nM cisplatin for 48 hr, vs vehicle-treated cells): significantly upregulated
miR-18b expression (miR-18b expression; 1205-Lu cells, 2 nM cisplatin for 48 hr, vs vehicle-treated cells, listed as Cisplatin): induced expression of miR-18b

miR-18b: microRNA, mature miR-18b-5p UAAGGUGCAUCUAGUGCAGUUAG (SEQ ID NO:1); transfected or stably expressed from pEP-hsa-mir-18b expression vector (listed as Homo sapiens)
active chromatin modifications (acetylated histones H3, H4 and H3 di-methylated lysine 4) (chromatin modifications): enrichment
repressive chromatin modifications (2H3K9 and 3H3K9) (chromatin modifications): suppression
reporter activity, mutant 3′UTR (3′UTR of MDM2; MDM2-Mut 3′UTR, 1205-Lu and LOX cells): no effect
reporter expression, MDM2-3′UTR construct (3′UTR of MDM2; transient co-transfection into 1205-Lu and LOX cells, 48 hr, vs control vector): significant decrease
gene expression (MDM2, p53 pathway) [1, 15]: suppression of MDM2, activation of the p53 pathway
MDM2 expression [1, 16]: significantly downregulated
expression of p53 and PUMA [1, 16]: concomitant increase
p14ARF expression ([1]; following miR-18b overexpression): unchanged
MDM2 at the protein level [1, 17]: significantly suppressed
anti-apoptotic genes BCL2 and BCL-XL [1, 17]: downregulation
pro-apoptotic genes p53 and PUMA [1, 17]: concomitant upregulation
cell survival, MDM2 and p53 expression levels [2]: no effect
melanoma cell survival (1205-Lu cells [3]; [15]): suppressed melanoma cell survival
cell proliferation with BRAF inhibitor (1205-Lu cells [3]; 1205-Lu transfected with miR-18b vs Neg-miR, treated with dabrafenib, 48 hrs): sensitized melanoma cell lines to BRAF specific inhibitor; also recorded: additive effect
sensitivity to cisplatin cytotoxicity (1205-Lu cells [3]; melanoma cells treated with miR-18b): enhanced sensitivity
cell proliferation (1205-Lu cells [3]; [18]): significantly suppressed
cell proliferation over time (1205-Lu cells [3]; [19]): significantly decreased
colony formation (1205-Lu cells [4]; [18]): significant decreases
colony formation ability (1205-Lu cells [4]; [19]): low colony formation ability
cells in S-phase (1205-Lu cells [5]; [18]): significant decreases
cells in S-phase (1205-Lu cells [5]; transient overexpression, cont.miR 15.5%, p<0.02): 8.05%
apoptotic index (1205-Lu cells [6]; stable expression of miR-18b): significant increase
apoptosis (1205-Lu cells [6]; transient overexpression, cont.miR 2.87%, p<0.01): 11.30%
cell proliferation (LOX human melanoma cells [7]): significant decrease
colony formation (LOX human melanoma cells [8]): significant decrease
S-phase (LOX human melanoma cells [9]): significant decrease
apoptosis (LOX human melanoma cells [10]): increase
tumor growth in vivo (1205-Lu cells [11]; subcutaneous inoculation into nude mice, followed for 24 days, vs control vector cells): significantly suppressed
MDM2 at the protein level in tumors (1205-Lu cells [11]; subcutaneous tumors, vs control tumors): suppressed
migratory ability (1205-Lu melanoma cells [12]): significantly suppressed
invasiveness (1205-Lu melanoma cells [13]): significantly suppressed
epithelial biomarker E-cadherin [14]: significant upregulation
mesenchymal markers vimentin, N-cadherin and slug [14]: reduced
